Laboratory results: patent US11932639B2, “Fused ring heteroaryl compounds as ALK4/5 inhibitors” (BiSiChem Co., Ltd., priority 2019, dated 2024)

What follows are molecules tested against T1, ALK5 (Homo sapiens, UniProt P36897) (assay: Cell-based luciferase reporter assay for ALK5 activity). Conditions: (CAGA)-12-luciferase reporter, Smad 2/3-responsive promoter, 2 ng/ml TGF-β1 stimulation for 12 hours; read-out: Relative luciferase activity: IC50 value.
T1 construct: endogenous in cells; host or cells: Hs578T (ATCC HTB-22), inferred as the cells of the reporter assay
T1 sequence (P36897 34-503): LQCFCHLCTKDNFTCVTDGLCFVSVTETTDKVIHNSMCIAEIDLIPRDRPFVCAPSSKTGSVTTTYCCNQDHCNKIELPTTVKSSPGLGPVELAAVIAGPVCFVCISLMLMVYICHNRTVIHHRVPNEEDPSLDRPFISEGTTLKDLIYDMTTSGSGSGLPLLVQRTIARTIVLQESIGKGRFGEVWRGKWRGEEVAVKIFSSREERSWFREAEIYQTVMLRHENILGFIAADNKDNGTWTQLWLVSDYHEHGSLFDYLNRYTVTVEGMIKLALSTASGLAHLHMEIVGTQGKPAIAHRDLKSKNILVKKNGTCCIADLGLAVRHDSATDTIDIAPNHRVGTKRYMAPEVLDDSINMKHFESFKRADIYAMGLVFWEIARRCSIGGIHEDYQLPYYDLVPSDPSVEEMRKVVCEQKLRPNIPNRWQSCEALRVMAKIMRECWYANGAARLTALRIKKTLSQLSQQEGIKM
Description: Human cancer cell lines Hs578T (ATCC® HTB-22™) cells were grown in DMEM (Dulbecco's modified Eagle's medium) supplemented with 10% fetal bovine serum and 1% mixture of penicillin and streptomycin (Gibco). Cells were maintained at 37° C. in a humidified 5% CO2 atmosphere.
Cell-Based Luciferase Reporter Assay for ALK5 Activity
Cells were seeded at 3×10^4/well in 24-well plates were transiently transfected with 500 ng of (CAGA)-12-luciferase reporter construct and 5 ng of pRL-TK Renilla luciferase vector (Promega, Madison, WI), an internal control for transfection efficiency, using Lipofectamine 3000 reagent (Thermo Fisher Scientific, Waltham, USA). After 24 h transfection, the cells were pre-treated with ALK5 inhibitor in dose-dependent manner. And then, Cells stimulated with 2 ng/ml recombinant TGF-β1 for 12 hours. After the stimulation, the firefly and Renilla luciferase activities were measured by Dual-Luciferase Repoter Assay (Promega).

IC50 [nM] | Compound
10 to 100 | Cc1cccc(-c2[nH]c(CNc3ccccc3F)nc2-c2ccn3ncnc3c2)n1 [Example 3, N-((4-([1,2,4]triazolo[1,5-a]pyridin-7-yl)-5-(6-methylpyridin-2-yl)-1H-imidazol-2-yl)methyl)-2-fluoroaniline]
> 100 | CNC(=O)c1cccc(CNc2nc(-c3ccn4ncnc4c3)c(-c3cccc(C)n3)[nH]2)c1 [Example 24, 3-((4-([1,2,4]triazolo[1,5-a]pyridin-7-yl)-5-(6-methylpyridin-2-yl)-1H-imidazol-2ylamino)methyl)-N-methylbenzamide]
10 to 100 | Cc1cccc(-c2[nH]c(CNc3cccc(Cl)c3F)nc2-c2ccn3nccc3c2)n1 [Example 1, 3-chloro-2-fluoro-N-((5-(6-methylpyridin-2-yl)-4-(pyrazolo[1,5-a]pyridin-5-yl)-1H-imidazol-2-yl)methyl)aniline]
< 10 | Cc1cccc(-c2[nH]c(NCc3ccc(Cl)cc3)nc2-c2ccn3ncnc3c2)n1 [Example 14, 4-([1,2,4]triazolo[1,5-a]pyridin-7-yl)-N-(4-chlorobenzyl)-5-(6-methylpyridin-2-yl)-1H-imidazol-2-amine]
< 10 | Cc1cccc(-c2[nH]c(CNc3ccc(Cl)c(Cl)c3)nc2-c2ccn3nccc3c2)n1 [Example 2, 3,4-dichloro-N-((5-(6-methylpyridin-2-yl)-4-(pyrazolo[1,5-a]pyridin-5-yl)-1H-imidazol-2-yl)methyl)aniline]
10 to 100 | Cc1cccc(-c2[nH]c(NC(=O)c3ccccc3F)nc2-c2ccn3ncnc3c2)n1 [Example 26, N-(4-([1,2,4]triazolo[1,5-a]pyridin-7-yl)-5-(6-methylpyridin-2-yl)-1H-imidazol-2-yl)-2-fluorobenzamide]
10 to 100 | Cc1cccc(-c2[nH]c(NCc3ccc(Cl)cc3F)nc2-c2ccn3ncnc3c2)n1 [Example 17, 4-([1,2,4]triazolo[1,5-a]pyridin-7-yl)-N-(4-chloro-2-fluorobenzyl)-5-(6-methylpyridin-2-yl)-1H-imidazol-2-amine]
< 10 | Cc1cccc(-c2[nH]c(NCc3ccc(Cl)c(Cl)c3)nc2-c2ccn3ncnc3c2)n1 [Example 20, 4-([1,2,4]triazolo[1,5-a]pyridin-7-yl)-N-(3,4-dichlorobenzyl)-5-(6-methylpyridin-2-yl)-1H-imidazol-2-amine]
10 to 100 | Cc1cccc(-c2[nH]c(NCc3ccccc3F)nc2-c2ccn3ncnc3c2)n1 [Example 11, 4-([1,2,4]triazolo[1,5-a]pyridin-7-yl)-N-(2-fluorobenzyl)-5-(6-methylpyridin-2-yl)-1H-imidazol-2-amine]
> 100 | CNC(=O)c1ccc(CNc2nc(-c3ccn4ncnc4c3)c(-c3cccc(C)n3)[nH]2)cc1 [Example 25, 4-((4-([1,2,4]triazolo[1,5-a]pyridin-7-yl)-5-(6-methylpyridin-2-yl)-1H-imidazol-2-ylamino)methyl)-N-methylbenzamide]
< 10 | Cc1cccc(-c2[nH]c(CNc3cccc(Cl)c3F)nc2-c2ccn3ncnc3c2)n1 [Example 4, N-((4-([1,2,4]triazolo[1,5-a]pyridin-7-yl)-5-(6-methylpyridin-2-yl)-1H-imidazol-2-yl)methyl)-3-chloro-2-fluoroaniline]
10 to 100 | Cc1cccc(-c2[nH]c(NCc3cccc(F)c3)nc2-c2ccn3nccc3c2)n1 [Example 7, N-(3-fluorobenzyl)-5-(6-methylpyridin-2-yl)-4-(pyrazolo[1,5-a]pyridine-5-yl)-1H-imidazol-2-amine]
10 to 100 | Cc1cccc(-c2[nH]c(NCc3cccc(F)c3F)nc2-c2ccn3ncnc3c2)n1 [Example 15, 4-([1,2,4]triazolo[1,5-a]pyridin-7-yl)-N-(2,3-difluorobenzyl)-5-(6-methylpyridin-2-yl)-1-imidazol-2-ylamine]
10 to 100 | Cc1cccc(-c2[nH]c(NCc3c(F)cccc3F)nc2-c2ccn3ncnc3c2)n1 [Example 16, 4-([1,2,4]triazolo[1,5-a]pyridin-7-yl)-N-(2,6-difluorobenzyl)-5-(6-methylpyridin-2-yl)-1H-imidazol-2-amine]

Further lines, the molecule ahead of its results:

Compound | IC50 [nM]
COc1cccc(CNc2nc(-c3ccn4ncnc4c3)c(-c3cccc(C)n3)[nH]2)c1F [Example 22, 4-([1,2,4]triazolo[1,5-a]pyridin-7-yl)-N-(2-fluoro-3-methoxybenzyl)-5-(6-methylpyridin-2-yl)-1H-imidazol-2-amine] | 10 to 100
Cc1cccc(-c2[nH]c(NCc3ccccc3F)nc2-c2ccn3nccc3c2)n1 [Example 6, N-(2-fluorobenzyl)-5-(6-methylpyridin-2-yl)-4-(pyrazolo[1,5-a]pyridine-5-yl)-1H-imidazol-2-amine] | 10 to 100
Cc1cccc(-c2[nH]c(NCc3cccc(Cl)c3F)nc2-c2ccn3ncnc3c2)n1 [Example 18, 4-([1,2,4]triazolo[1,5-a]pyridin-7-yl)-N-(3-chloro-2-fluorobenzyl)-5-(6-methylpyridin-2-yl)-1H-imidazol-2-amine] | < 10
COc1ccc(CNc2nc(-c3ccn4ncnc4c3)c(-c3cccc(C)n3)[nH]2)c(F)c1 [Example 23, 4-([1,2,4]triazolo[1,5-a]pyridin-7-yl)-N-(2-fluoro-4-methoxybenzyl)-5-(6-methylpyridin-2-yl)-1H-imidazol-2-amine] | 10 to 100
Cc1cccc(-c2[nH]c(NCc3ccc(Cl)cc3Cl)nc2-c2ccn3ncnc3c2)n1 [Example 21, 4-([1,2,4]triazolo[1,5-a]pyridin-7-yl)-N-(2,4-dichlorobenzyl)-5-(6-methylpyridin-2-yl)-1H-imidazol-2-amine] | 10 to 100
Cc1cccc(-c2[nH]c(NCc3ccc(Cl)cc3F)nc2-c2ccn3nccc3c2)n1 [Example 9, N-(4-chloro-2-fluorobenzyl)-5-(6-methylpyridin-2-yl)-4-(pyrazolo[1,5-a]pyridin-5-yl)-1H-imidazol-2-amine] | < 10
Cc1cccc(-c2[nH]c(NC(C)c3ccccc3F)nc2-c2ccn3ncnc3c2)n1 (stereo not drawn) [Example 27, 4-([1,2,4]tiazolo[1,5-a]pyridin-7-yl)-N-(1-(2-fluorophenyl)ethyl)-5-(6-methylpyridin-2-yl)-1H-imidazol-2-amine] | 10 to 100
Cc1cccc(-c2[nH]c(NCc3ccc(Cl)c(Cl)c3)nc2-c2ccn3nccc3c2)n1 [Example 10, N-(3,4-dichlorobenzyl)-5-(6-methylpyridin-2-yl)-4-(pyrazolo[1,5-a]pyridin-5-yl)-1H-imidazol-2-amine] | 10 to 100
Cc1cccc(-c2[nH]c(NCc3cc(Cl)ccc3F)nc2-c2ccn3ncnc3c2)n1 [Example 19, 4-([1,2,4]triazolo[1,5-a]pyridin-7-yl)-N-(5-chloro-2-fluorobenzyl)-5-(6-methylpyridin-2-yl)-1H-imidazol-2-amine] | 10 to 100
Cc1cccc(-c2[nH]c(NCc3cccc(Cl)c3)nc2-c2ccn3ncnc3c2)n1 [Example 13, 4-([1,2,4]triazolo[1,5-a]pyridin-7-yl)-N-(3-chlorobenzyl)-5-(6-methylpyridin-2-yl)-1H-imidazol-2-amine] | 10 to 100
Cc1cccc(-c2[nH]c(NCc3cccc(Cl)c3F)nc2-c2ccn3nccc3c2)n1 [Example 8, N-(3-chloro-2-fluorobenzyl)-5-(6-methylpyridin-2-yl)-4-(pyrazolo[1,5-a]pyridin-5-yl)-1H-imidazol-2-amine] | 10 to 100
Cc1cccc(-c2[nH]c(CNc3ccc(Cl)c(Cl)c3)nc2-c2ccn3ncnc3c2)n1 [Example 5, N-((4-([1,2,4]triazolo[1,5-a]pyridin-7-yl)-5-(6-methylpyridin-2-yl)-1H-imidazol-2-yl)methyl)-3,4-dichloroaniline] | < 10
Cc1cccc(-c2[nH]c(NCc3cccc(F)c3)nc2-c2ccn3ncnc3c2)n1 [Example 12, 4-([1,2,4]triazolo[1,5-a]pyridin-7-yl)-N-(3-fluorobenzyl)-5-(6-methylpyridin-2-yl)-1H-imidazol-2ylamine] | 10 to 100
